# Laboratory results reported in article PMC7269146, “Jingzhaotoxin-X, a gating modifier of Kv4.2 and Kv4.3 potassium channels purified from the venom of the Chinese tarantula Chilobrachys jingzhao” (The Journal of Venomous Animals and Toxins Including …, 2020).
# Where a SMILES comes first, the peptide text is derived from it. Bridges are numbered along the chain shown (N, C = ends).
# Molecular target: T1, Kv4.3 (Rattus norvegicus, UniProt Q62897)
# T1 construct: expressed in transfected cells; host or cells: HEK293t
# T1 sequence (Q62897 1-655): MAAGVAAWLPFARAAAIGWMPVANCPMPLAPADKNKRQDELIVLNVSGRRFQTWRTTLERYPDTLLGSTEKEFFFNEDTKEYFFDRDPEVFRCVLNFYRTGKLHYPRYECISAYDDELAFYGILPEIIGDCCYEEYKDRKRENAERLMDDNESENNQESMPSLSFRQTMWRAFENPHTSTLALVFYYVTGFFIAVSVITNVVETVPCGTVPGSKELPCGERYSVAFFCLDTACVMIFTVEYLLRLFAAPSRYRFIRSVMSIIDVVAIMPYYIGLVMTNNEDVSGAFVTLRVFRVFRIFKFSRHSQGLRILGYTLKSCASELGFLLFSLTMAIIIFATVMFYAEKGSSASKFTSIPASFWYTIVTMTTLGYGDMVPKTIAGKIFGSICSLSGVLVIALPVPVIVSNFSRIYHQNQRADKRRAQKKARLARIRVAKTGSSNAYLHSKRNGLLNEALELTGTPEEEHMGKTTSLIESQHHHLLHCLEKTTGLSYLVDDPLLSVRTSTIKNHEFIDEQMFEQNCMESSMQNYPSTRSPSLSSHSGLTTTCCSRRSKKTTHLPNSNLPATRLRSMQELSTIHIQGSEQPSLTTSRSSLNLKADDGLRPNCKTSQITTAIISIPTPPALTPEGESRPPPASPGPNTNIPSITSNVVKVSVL
# Experiment: current-voltage relationship / activation, Kv4.3
# Assay type: cell-based
# Description: Rat cDNA genes encoding Kv4.2 (Accession: NM_031730.2) and Kv4.3 (Accession: AB003587.1) were subcloned to vector pcDNA3.1. In addition, human cDNA genes encoding Nav1.7 (Accession: DQ857292.1) and Nav1.5 (Accession: AB158469.2) were subcloned to vectors pcDNA3.1-mod and pcDNA3.1, separately. Then, Kv4.2, Kv4.3, Nav1.5 and Nav1.7 constructs were transiently transfected into the human embryonic kidney 293t (HEK293t) cells using lipofectamine 2000 (Invitrogen, USA) in accordance with manufacturer protocols. Thereafter, HEK293 cells were inoculated within Dulbecco’s modified Eagle’s medium (DMEM) containing 10% fetal bovine serum (FBS) at 5% CO2 and 37°C. The Kv4.3 channel and the Kv4.2 counterpart were then transfected in the absence of β subunit. Subsequently, cells were incubated with a DNA-lipofectamine mixture (one reporter plasmid for green fluorescence protein and channel constructs) for 4-6 h, and were washed with the fresh medium.
# An EPC-10 patch-clamp amplifier (HEKA, Germany) was employed to record the potassium currents at the configuration of whole-cell patch-clamp under an ambient temperature of 22-25°C. The resistance was 2.0-3.0 MΩ when the recording pipette contained a full volume of internal solution (supplemented with 140 mM KCl, 10 mM HEPES, 2.5 mM MgCl2, 5 mM ATP and 11 mM EGTA). KOH was utilized to adjust the pH to 7.2, while sucrose was employed to adjust the osmolarity to 310 mOsm/L. The culture medium was replaced with an external solution containing 150 mM NaCl, 2.5 mM CaCl2, 10 mM HEPES, 2 mM MgCl2, 5 mM KCl, and 10 mM D-glucose. Similarly, sucrose and NaOH were applied to adjust the osmolarity to 330 mOsm/L and pH to 7.4. […] The series resistance was maintained at about 5 MΩ, with 65-70% compensation. Finally, the leakage currents and linear capacitance were subtracted digitally according to the P/4 protocol.
# The voltage-dependent inhibition of Kv4.2 and Kv4.3 channels by JZTX-X was determined by the depolarizing pulses to potentials in 10 mV steps from −80 to +60 mV at an interval of 10 s and the holding potential of -80 mV. […] For quantifying the voltage-depending inhibition of Kv4.2 and Kv4.3 channels, the relative current was drawn based on the membrane potential. Under control conditions, those threshold potentials to initially activate Kv4.2 and Kv4.3 currents were around -40 mV. The JZTX-X treatment at 500 nM inhibited the Kv4.2 and Kv4.3 currents, and then the I-V relation shifted to the right by about 30 mV (from -39.5 ± 1.9 mV to -11.3 ± 1.2 mV ) and 40 mV (from -39.8 ± 1.5 mV to -2.5 ± 0.9 mV ), separately (Fig. 5C and D). Additionally, the channel conductance also shifted rightward by around 30 mV (data not shown).
# Figure 5. […] All data were expressed as mean ± S.E.M (n = 5-7 cells).
smiles,measurement,setting,value
"CC(C)C[C@@H]1NC(=O)[C@H](CCCCN)NC(=O)[C@H](Cc2ccc(O)cc2)NC(=O)[C@@H]2CSSC[C@@H]3NC(=O)[C@H](Cc4ccc(O)cc4)NC(=O)[C@H](Cc4ccccc4)NC(=O)CNC(=O)[C@H](C)NC(=O)[C@H](CSSC[C@H](NC(=O)[C@@H](N)CC(C)C)C(=O)N[C@@H](CO)C(=O)N[C@@H](CCCNC(=N)N)C(=O)N[C@@H](CCC(=O)O)C(=O)NCC(=O)N[C@@H](CCC(=O)O)C(=O)N[C@@H](Cc4ccccc4)C(=O)N2)NC(=O)[C@H](CSSC[C@@H](C(=O)N[C@@H](Cc2ccc(O)cc2)C(=O)N[C@@H](CCCNC(=N)N)C(=O)N[C@@H](CC(N)=O)C(=O)O)NC(=O)[C@H](Cc2c[nH]cn2)NC(=O)[C@H](CC(C)C)NC(=O)[C@H](C(C)C)NC(=O)[C@H](Cc2ccccc2)NC(=O)[C@H](C)NC(=O)[C@H](CCCCN)NC3=O)NC(=O)[C@H](CCCCN)NC(=O)[C@H](CCCNC(=N)N)NC1=O [JZTX-X, Jingzhaotoxin-X] (H-LCSREGEFCYKLRKCCAGFYCKAFVLHCYRN-OH; disulfide 2-16, 9-21, 15-28; N-terminus assumed)","I-V relation potential after toxin, Kv4.3","500 nM, control -39.8 ± 1.5 mV, holding -80 mV, n = 5-7 cells",-2.5 ± 0.9 mV
same,"rightward shift of I-V relation, Kv4.3","500 nM, holding -80 mV",~40 mV
same,"rightward shift of channel conductance, Kv4.3","data not shown, channel not named separately",about 30 mV
same,voltage dependence of Kv4.3 inhibition,"test potentials -10 to +60 mV, 100 nM and 500 nM",dependent on voltage
